These results are taken from BindingDB's records for doi:10.1074/jbc.M113.480210 (University of Copenhagen, 2013).

As usually defined, the Ki is the equilibrium dissociation constant of an inhibitor or competing ligand from its target. The low end stands for a stronger hold on the target, the high end for a looser hold on the target. The IC50 is the concentration at which inhibition is half-maximal. Higher therefore signals a need for much substance.

SMILES strings stand for the structures.

Test in all cases: Two-electrode Voltage Clamp Electrophysiology
Common to all, as to conditions: pH 7.4; 25 °C

Assay [1] deals with Glutamate receptor ionotropic, NMDA 2B (Rat, UniProt Q00960+Q62683). Here is the method: (§1) Two-electrode voltage clamp (TEVC) recordings were performed on Xenopus oocytes at room temperature 3-6 days postinjection using an OC-725C TEVC amplifier (Warner Instruments, Hamden, CT). […] Voltage and current electrodes were filled with 0.3 and 3 M KCl, respectively. During recordings, oocytes were placed in a recording chamber and perfused with the extracellular recording solution comprised of 90 mM NaCl, 1 mM KCl, 10 mM HEPES, 0.5 mM BaCl2, and 0.01 mM EDTA (pH 7.4 with NaOH). Current responses were recorded at a holding potential of -40 and -60 mV for GluN1/N2 and GluN1/N3 receptors, respectively. Compounds were dissolved in extracellular recording solution and applied to the oocyte by gravity-driven perfusion using a computer-controlled 8-modular valve positioner (Digital MVP, Hamilton, Reno, NV).

Assay [2] addresses Glutamate receptor ionotropic, NMDA 2D (Rat, UniProt Q62645+Q62683). The procedure:
as §1

The target of assay [3] is Glutamate receptor ionotropic, NMDA 2A (Rat, UniProt Q00959+Q62683). The procedure: as §1
The target of assay [4] is Glutamate receptor ionotropic, NMDA 2C (Rat, UniProt Q00961+Q62683). Here is the method: as §1
Another assay concerns the target Glutamate receptor 1 (Rattus norvegicus, UniProt P19490). Here is the method:
as §1

The target in assay [5] is Glutamate receptor ionotropic, NMDA 1 [F484A,T518L]/3B (Rattus norvegicus, UniProt P35439+Q8VHN2, F484A/T518L). Here is the method:
as §1

For assay [6], the target named is Glutamate receptor ionotropic, NMDA 1 [F484A,T518L]/3A (Rattus norvegicus, UniProt P35439+Q9R1M7, F484A/T518L). Here is the method:
as §1

Glutamate receptor ionotropic, NMDA 2A, sequence (Q00959 whole entry, other chains not shown): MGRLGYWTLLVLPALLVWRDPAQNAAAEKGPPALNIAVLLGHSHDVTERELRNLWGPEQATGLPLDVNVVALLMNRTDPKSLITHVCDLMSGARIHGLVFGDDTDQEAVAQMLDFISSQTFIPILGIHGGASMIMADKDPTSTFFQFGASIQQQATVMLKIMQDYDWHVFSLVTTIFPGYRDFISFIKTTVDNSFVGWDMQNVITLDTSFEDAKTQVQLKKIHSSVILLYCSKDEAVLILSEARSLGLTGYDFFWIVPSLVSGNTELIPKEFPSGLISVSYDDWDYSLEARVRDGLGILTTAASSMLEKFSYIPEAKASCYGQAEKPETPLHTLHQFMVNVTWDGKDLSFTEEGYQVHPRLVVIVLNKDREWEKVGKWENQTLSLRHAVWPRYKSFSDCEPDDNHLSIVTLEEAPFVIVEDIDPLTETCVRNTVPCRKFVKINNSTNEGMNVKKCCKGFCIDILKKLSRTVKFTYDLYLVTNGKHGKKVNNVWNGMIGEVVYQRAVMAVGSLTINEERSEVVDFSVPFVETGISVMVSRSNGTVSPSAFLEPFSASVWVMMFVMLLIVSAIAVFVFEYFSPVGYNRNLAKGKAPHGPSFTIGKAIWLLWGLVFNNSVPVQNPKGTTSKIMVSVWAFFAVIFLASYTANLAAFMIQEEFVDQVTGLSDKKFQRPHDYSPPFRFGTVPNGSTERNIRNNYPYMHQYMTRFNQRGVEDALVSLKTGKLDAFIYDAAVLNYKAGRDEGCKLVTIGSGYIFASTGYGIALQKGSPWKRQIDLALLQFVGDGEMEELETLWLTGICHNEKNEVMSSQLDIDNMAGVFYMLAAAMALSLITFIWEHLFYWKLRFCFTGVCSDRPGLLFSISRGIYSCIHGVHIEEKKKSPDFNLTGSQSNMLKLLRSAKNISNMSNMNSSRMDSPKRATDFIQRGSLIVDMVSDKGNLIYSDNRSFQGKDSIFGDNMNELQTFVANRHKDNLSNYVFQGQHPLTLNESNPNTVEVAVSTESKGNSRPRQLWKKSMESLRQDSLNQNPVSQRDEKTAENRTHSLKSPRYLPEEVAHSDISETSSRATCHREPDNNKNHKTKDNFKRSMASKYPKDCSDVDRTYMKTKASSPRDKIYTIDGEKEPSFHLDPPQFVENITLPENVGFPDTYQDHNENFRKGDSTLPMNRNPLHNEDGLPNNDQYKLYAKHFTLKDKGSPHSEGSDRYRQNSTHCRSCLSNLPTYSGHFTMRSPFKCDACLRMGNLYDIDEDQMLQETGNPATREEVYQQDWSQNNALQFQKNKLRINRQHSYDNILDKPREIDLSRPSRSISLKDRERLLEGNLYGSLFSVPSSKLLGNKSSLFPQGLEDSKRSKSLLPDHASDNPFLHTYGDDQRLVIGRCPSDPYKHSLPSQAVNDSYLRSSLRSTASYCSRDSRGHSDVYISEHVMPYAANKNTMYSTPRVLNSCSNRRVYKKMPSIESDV
Glutamate receptor 1, sequence (P19490 whole entry): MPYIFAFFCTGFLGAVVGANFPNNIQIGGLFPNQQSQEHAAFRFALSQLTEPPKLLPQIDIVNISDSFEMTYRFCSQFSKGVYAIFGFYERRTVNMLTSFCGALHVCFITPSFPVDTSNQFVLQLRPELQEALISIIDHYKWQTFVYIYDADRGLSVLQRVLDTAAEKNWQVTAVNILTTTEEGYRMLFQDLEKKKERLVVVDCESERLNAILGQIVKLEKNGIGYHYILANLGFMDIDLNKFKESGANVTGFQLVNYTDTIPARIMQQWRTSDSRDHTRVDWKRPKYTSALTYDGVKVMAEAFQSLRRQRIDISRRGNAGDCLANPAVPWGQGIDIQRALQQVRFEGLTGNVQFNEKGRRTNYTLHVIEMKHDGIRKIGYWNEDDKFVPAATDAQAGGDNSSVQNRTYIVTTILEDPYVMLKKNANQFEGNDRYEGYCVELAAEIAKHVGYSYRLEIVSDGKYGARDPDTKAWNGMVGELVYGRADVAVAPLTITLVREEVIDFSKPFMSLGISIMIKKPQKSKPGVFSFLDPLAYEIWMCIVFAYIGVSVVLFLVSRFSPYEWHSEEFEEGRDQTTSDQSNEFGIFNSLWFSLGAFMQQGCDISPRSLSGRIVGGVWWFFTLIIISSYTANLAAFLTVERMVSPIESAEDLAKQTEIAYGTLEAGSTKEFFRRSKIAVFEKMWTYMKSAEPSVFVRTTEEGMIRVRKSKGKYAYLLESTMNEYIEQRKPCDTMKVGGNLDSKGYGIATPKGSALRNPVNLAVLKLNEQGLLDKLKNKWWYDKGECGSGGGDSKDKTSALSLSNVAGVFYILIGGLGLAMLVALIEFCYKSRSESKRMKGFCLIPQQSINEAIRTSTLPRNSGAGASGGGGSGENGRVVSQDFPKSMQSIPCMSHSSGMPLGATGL
Glutamate receptor ionotropic, NMDA 1 [F484A,T518L]/3B, sequence (Q8VHN2 25-1002 limits assumed, other chains not shown): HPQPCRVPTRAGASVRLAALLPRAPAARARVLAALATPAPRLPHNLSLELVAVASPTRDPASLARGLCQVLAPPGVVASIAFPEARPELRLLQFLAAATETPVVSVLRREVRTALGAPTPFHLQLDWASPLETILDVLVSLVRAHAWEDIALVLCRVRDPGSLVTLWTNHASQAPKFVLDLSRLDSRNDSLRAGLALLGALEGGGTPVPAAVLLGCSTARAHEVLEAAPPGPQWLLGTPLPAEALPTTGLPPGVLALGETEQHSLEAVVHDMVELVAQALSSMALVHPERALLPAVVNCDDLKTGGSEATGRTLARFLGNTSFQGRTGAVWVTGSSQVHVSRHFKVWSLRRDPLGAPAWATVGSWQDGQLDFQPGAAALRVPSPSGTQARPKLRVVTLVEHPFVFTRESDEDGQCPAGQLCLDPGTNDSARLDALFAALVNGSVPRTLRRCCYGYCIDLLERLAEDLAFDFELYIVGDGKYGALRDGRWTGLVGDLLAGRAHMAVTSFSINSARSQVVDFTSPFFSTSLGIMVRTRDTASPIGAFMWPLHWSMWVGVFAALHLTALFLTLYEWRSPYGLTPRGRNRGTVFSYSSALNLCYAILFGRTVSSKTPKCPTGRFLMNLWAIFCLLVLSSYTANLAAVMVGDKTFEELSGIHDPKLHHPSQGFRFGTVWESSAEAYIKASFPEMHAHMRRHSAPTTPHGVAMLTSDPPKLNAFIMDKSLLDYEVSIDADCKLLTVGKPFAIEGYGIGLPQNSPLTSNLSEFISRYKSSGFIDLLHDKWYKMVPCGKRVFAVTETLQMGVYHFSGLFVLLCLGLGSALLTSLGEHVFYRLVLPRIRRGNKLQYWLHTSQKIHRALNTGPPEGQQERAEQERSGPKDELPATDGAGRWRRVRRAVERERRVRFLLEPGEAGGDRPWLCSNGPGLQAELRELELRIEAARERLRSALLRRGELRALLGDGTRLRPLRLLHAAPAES
Glutamate receptor ionotropic, NMDA 1 [F484A,T518L]/3A, sequence (Q9R1M7 24-1135 limits assumed, other chains not shown): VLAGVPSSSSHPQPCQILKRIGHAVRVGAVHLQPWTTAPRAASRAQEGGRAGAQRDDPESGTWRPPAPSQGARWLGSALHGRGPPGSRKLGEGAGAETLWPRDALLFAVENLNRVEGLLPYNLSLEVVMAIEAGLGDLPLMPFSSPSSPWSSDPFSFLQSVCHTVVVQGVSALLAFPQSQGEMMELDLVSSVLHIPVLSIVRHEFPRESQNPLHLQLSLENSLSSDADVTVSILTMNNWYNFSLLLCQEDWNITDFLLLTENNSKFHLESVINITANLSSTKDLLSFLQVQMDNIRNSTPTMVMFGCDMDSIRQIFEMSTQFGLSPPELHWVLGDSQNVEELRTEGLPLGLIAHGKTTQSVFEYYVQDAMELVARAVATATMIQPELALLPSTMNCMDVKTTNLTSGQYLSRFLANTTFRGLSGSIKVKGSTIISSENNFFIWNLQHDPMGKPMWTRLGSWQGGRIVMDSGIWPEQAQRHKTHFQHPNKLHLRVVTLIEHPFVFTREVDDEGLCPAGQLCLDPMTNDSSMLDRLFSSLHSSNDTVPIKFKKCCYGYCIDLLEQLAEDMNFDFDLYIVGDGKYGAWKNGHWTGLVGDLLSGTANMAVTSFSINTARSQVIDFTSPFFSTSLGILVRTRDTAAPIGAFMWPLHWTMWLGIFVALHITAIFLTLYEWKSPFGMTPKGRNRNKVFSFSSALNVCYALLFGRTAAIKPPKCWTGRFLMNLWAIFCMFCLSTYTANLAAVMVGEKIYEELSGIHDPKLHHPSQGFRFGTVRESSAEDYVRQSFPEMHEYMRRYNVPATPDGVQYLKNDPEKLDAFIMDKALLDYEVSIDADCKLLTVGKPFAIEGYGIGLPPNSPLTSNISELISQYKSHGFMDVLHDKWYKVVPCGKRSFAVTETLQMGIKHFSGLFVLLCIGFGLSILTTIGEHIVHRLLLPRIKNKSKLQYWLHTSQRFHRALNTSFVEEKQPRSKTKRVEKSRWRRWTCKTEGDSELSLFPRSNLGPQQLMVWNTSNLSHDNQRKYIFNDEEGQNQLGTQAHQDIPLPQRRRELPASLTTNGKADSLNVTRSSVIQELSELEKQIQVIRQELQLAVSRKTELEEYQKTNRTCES

In the case of `O=c1[nH]c2ccccc2n2c(S)nnc12` [1-thioxo-1,2-dihydro-[1,2,4]triazolo[4,3-a]-quinoxalin-4(5H)-one], the Ki was over 1300 nM in assay [1]; over 300 nM in assay [2]; 560 nM in assay [3]; over 800 nM in assay [4]; over 180 µM on Glutamate receptor 1. For the same compound, the figures for the half-inhibitory concentration (IC50) (in assay [3]; against Glutamate receptor 1) were 770 nM and over 300 µM, respectively.

For `O=C(O)c1cc(O)c2c(Cl)cc(Cl)cc2n1` [5,7-Dichlorokynurenic acid (5,7-DCKA)], the figures for the IC50 in assay [5], in assay [3] and in assay [6] were over 300 µM, 92 nM and 97 µM, respectively. The Ki in assay [5] is over 150 µM; in assay [3], 65 nM; in assay [6] it was 35 µM.
